Where a name gives a salt, the structure may show the parent alone. Read-outs that look alike come from different tables or passages of the source.
Columns and labels:
KMS-Cell = test: KMS cell IC50 (Table 4); type: cell-based; conditions: KMS cells
[1] = target: T1, full length recombinant Pim-2 protein (Homo sapiens, UniProt Q9P1W9); test: Pim-2 enzyme assay (HTRF, phosphorylation of biotinylated-BAD (S112) peptide); type: biochemical; conditions: read-out: Pim2_IC50
T1 construct: by full length recombinant Pim-1, Pim-2, or Pim-3 protein; hexahistidine tag followed by a thrombin cleavage site (N); made in house; host or cells: Sf9 (baculovirus) or E. coli (pET28)
T1 sequence (Q9P1W9 whole entry): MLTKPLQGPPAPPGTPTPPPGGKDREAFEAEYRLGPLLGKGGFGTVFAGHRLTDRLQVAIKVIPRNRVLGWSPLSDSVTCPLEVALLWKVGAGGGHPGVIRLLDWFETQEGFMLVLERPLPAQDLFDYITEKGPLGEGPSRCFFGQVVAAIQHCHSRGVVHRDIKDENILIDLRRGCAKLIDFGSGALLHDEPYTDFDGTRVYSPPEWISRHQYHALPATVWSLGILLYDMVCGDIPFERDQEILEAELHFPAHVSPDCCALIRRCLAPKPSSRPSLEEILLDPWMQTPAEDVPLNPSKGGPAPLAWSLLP
Outline: (§1)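 HTRF readout (europium anti-pBAD S112 antibody, streptavidin-APC) of biotin-BAD peptide phosphorylation by recombinant full-length Pim-1 or Pim-2, buffer 60 mM Hepes pH 7.0, 2 mM DTT, 0.05% BSA. Enzymes were His6-tagged, from baculovirus/Sf9 or E. coli.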

[2] = target: T2, full length recombinant Pim-3 protein (Homo sapiens, UniProt Q86V86); test: Pim-3 enzyme assay (HTRF, phosphorylation of biotinylated-BAD (S112) peptide); type: biochemical; conditions: read-out: Pim3 IC50
T2 construct: by full length recombinant Pim-1, Pim-2, or Pim-3 protein; purchased Millipore (UK)
Outline: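 HTRF read-out, streptavidin-APC plus Eu-labelled anti-phospho-BAD (S112) antibody, measures BAD peptide phosphorylation by full-length recombinant Pim-3. Buffer: 60 mM Hepes pH 7.0, 2 mM DTT, 0.05% BSA; EDTA (3 mM) stop. Percent of control per well, IC50 by 4-parameter logistic fit.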

[3] = target: T3, Pim-2 stably transfected into the U2OS human osteogenic sarcoma line (Homo sapiens, UniProt Q9P1W9); test: Pim cell assay, phospho-BAD normalized against total BAD, U2OS stably transfected with Pim-2; type: cell-based; conditions: read-out: Pim2_Cell_IC50; further: high dose 31.6 µM
T3 construct: expressed in transfected cells; host or cells: U2OS human osteogenic sarcoma line
T3 sequence (Q9P1W9 whole entry): as the sequence (Q9P1W9 whole entry) above
Outline: (§2)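 Read-out is phospho-BAD relative to total BAD, by MSD electrochemiluminescence on lysates, expressed as % phosphoprotein = (2×phospho)/(phospho+total)×100. Engineered U2OS lines carrying stably transfected Pim-1 or Pim-2 received 10-point compound dilutions at 0.3% final DMSO after overnight culture at 37 °C; DMSO-only wells served as high control.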

[4] = target: T4, full length recombinant Pim-1 protein (Homo sapiens, UniProt P11309); test: Pim-1 enzyme assay (HTRF, phosphorylation of biotinylated-BAD (S112) peptide); type: biochemical; conditions: enzyme assay, Pim-1; read-out: Pim_1_IC50
T4 construct: by full length recombinant Pim-1, Pim-2, or Pim-3 protein; hexahistidine tag followed by a thrombin cleavage site (N); made in house; host or cells: Sf9 (baculovirus) or E. coli (pET28)
T4 sequence (P11309 whole entry): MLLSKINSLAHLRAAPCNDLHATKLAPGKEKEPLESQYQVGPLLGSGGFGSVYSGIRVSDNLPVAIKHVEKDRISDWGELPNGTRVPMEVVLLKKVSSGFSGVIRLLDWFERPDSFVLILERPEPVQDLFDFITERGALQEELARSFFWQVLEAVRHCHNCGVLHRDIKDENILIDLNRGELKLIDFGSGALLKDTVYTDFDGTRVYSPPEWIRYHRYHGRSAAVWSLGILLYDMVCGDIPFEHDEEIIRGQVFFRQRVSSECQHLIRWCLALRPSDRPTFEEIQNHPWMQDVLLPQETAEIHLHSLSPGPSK
Outline: as §1

[5] = target: T5, Pim-1 stably transfected into the U2OS human osteogenic sarcoma line (Homo sapiens, UniProt P11309); test: Pim cell assay, phospho-BAD normalized against total BAD, U2OS stably transfected with Pim-1; type: cell-based; conditions: read-out: Pim1_Cell_IC50
T5 construct: expressed in transfected cells; host or cells: U2OS human osteogenic sarcoma line
T5 sequence (P11309 whole entry): as above
Outline: as §2

[6] = U2OS cells stably transfected with Pim-2, phospho-BAD, high dose […]
[7] = U2OS cells stably transfected with Pim-1, phospho-BAD, high dose […]

Structure (SMILES) | IC50 (KMS-Cell) [nM] | IC50 [1] [nM] | IC50 [2] [nM] | IC50 [3, 6] [nM] | IC50 ([1]; enzyme assay, Pim-2) [nM] | IC50 [4] [nM] | IC50 [5, 7] [nM] | IC50 [3] [nM] | IC50 [5] [nM]
O=c1cc(-c2n[nH]c3ccc(-c4nccs4)cc23)nc(O[C@@H]2CNCC[C@H]2F)[nH]1 (racemic) [Example 289, 2-((trans-4-fluoropiperidin-3-yl)oxy)-6-(5-(thiazol-2-yl)-1H-indazol-3-yl)pyrimidin-4(3H)-one trifluoroacetate] | 3540 | 1 | – | – | – | – | – | – | –
CC(C)(C)Nc1cncc(-c2n[nH]c3ccc(-c4c(F)cccc4F)cc23)n1 [Example 183, N-tert-butyl-6-(5-(2,6-difluorophenyl)-1H-indazol-3-yl)-2-pyrazinamine] | – | – | 44 | > 31600 | 679 | 44 | 4260 | – | –
Fc1cccc(F)c1-c1ccc2[nH]nc(-c3cncc(OC4CCNC4)n3)c2c1 (stereo not drawn) [Example 187, 5-(2,6-difluorophenyl)-3-(6-(3-pyrrolidinyloxy)-2-pyrazinyl)-1H-indazole] | – | – | 22 | 24200 | 131 | 50 | 1830 | – | –
Fc1cccc(F)c1-c1ccc2[nH]nc(-c3ccnc(O[C@@H]4CCCNC4)n3)c2c1 [Example 190, 5-(2,6-difluorophenyl)-3-(2-((3R)-3-piperidinyloxy)-4-pyrimidinyl)-1H-indazole] | – | – | 36 | 18800 | 223 | 24 | 1220 | – | –
C[C@H]1CCNC[C@@H]1Oc1cncc(-c2n[nH]c3ccc(-c4c(F)cccc4F)cc23)n1 [Example 195, 5-(2,6-difluorophenyl)-3-(6-(((3R,4S)-4-methyl-3-piperidinyl)oxy)-2-pyrazinyl)-1H-indazole] | – | – | 7 | 7580 | 15 | 4 | 211 | – | –
C[C@H]1CCNC[C@H]1Oc1cncc(-c2n[nH]c3ccc(-c4c(F)cccc4F)cc23)n1 [Example 199, 5-(2,6-difluorophenyl)-3-(6-(((3S,4S)-4-methyl-3-piperidinyl)oxy)-2-pyrazinyl)-1H-indazole] | – | – | 4 | 3410 | 16 | 5 | 400 | – | –
N[C@H]1CCCN(c2cncc(-c3c[nH]c4ccc(-c5c(F)cccc5F)cc34)n2)C1 [Example 201, (3S)-1-(6-(5-(2,6-difluorophenyl)-1H-indol-3-yl)-2-pyrazinyl)-3-piperidinamine] | – | – | 5 | > 31600 | 66 | 1 | 611 | – | –
Fc1cccc(F)c1-c1ccc2[nH]cc(-c3cncc(N[C@@H]4CCCNC4)n3)c2c1 [Example 207, 6-(5-(2,6-difluorophenyl)-1H-indol-3-yl)-N-((3R)-3-piperidinyl)-2-pyrazinamine] | – | – | 4 | 3030 | 11 | 1 | 102 | – | –
Fc1cccc(F)c1-c1ccc2[nH]cc(-c3cncc(N[C@@H]4CCNC4)n3)c2c1 [Example 208, 6-(5-(2,6-difluorophenyl)-1H-indol-3-yl)-N-((3R)-3-pyrrolidinyl)-2-pyrazinamine] | – | – | 4 | 4620 | 15 | 2 | 381 | – | –
Fc1cccc(F)c1-c1ccc2[nH]cc(-c3nccc(O[C@@H]4CCCNC4)n3)c2c1 [Example 209, 5-(2,6-difluorophenyl)-3-(4-((3R)-3-piperidinyloxy)-2-pyrimidinyl)-1H-indole] | – | – | 49 | – | 89 | 36 | – | 30300 | 1180
Fc1cccc(F)c1-c1ccc2[nH]cc(-c3nccc(OC4CCNCC4)n3)c2c1 [Example 211, 5-(2,6-difluorophenyl)-3-(4-(4-piperidinyloxy)-2-pyrimidinyl)-1H-indole] | – | – | 61 | – | 445 | 86 | – | > 31600 | 3790
CC(C)Oc1cncc(-c2ccc3[nH]cc(-c4ccc5cn[nH]c5c4)c3c2)n1 [Example 221, 6-(5-(6-(1-methylethoxy)-2-pyrazinyl)-1H-indol-3-yl)-1H-indazole] | – | – | 33 | – | 506 | 50 | – | > 31600 | 1920
CC(C)Oc1cncc(-c2ccc3[nH]cc(-c4cncc(N5CCOCC5)n4)c3c2)n1 [Example 225, 5-(6-(1-methylethoxy)-2-pyrazinyl)-3-(6-(4-morpholinyl)-2-pyrazinyl)-1H-indole] | – | – | 138 | – | > 3000 | 77 | – | > 31600 | 1470
CC(C)Oc1cncc(-c2ccc3[nH]cc(-c4cncc(N(C)C)n4)c3c2)n1 [Example 230, N,N-dimethyl-6-(5-(6-(1-methylethoxy)-2-pyrazinyl)-1H-indol-3-yl)-2-pyrazinamine] | – | – | 50 | – | 2360 | 89 | – | > 31600 | 2830
Nc1ccc(-c2ccc3[nH]nc(-c4cncc(O[C@H]5CNCCC56CC6)n4)c3c2)c(F)n1 [Example 466] | 346 | 1 | – | – | – | – | – | – | –

Now from value to molecule:

IC50 (KMS-Cell) [nM] | IC50 [1] [nM] | IC50 [2] [nM] | IC50 [3, 6] [nM] | IC50 ([1]; enzyme assay, Pim-2) [nM] | IC50 [4] [nM] | IC50 [5, 7] [nM] | IC50 [3] [nM] | IC50 [5] [nM] | Structure (SMILES)
– | – | 233 | > 31600 | 1040 | 139 | > 31600 | – | – | Fc1cccc(F)c1-c1ccc2[nH]nc(-c3cncc(Nc4ccccc4)n3)c2c1 [Example 184, 6-(5-(2,6-difluorophenyl)-1H-indazol-3-yl)-N-phenyl-2-pyrazinamine]
– | – | 3 | > 31600 | 52 | 2 | 561 | – | – | NC1CCN(c2nccc(-c3n[nH]c4ccc(-c5c(F)cccc5F)cc34)n2)CC1 [Example 194, 1-(4-(5-(2,6-difluorophenyl)-1H-indazol-3-yl)-2-pyrimidinyl)-4-piperidinamine]
– | – | 5 | 5090 | 13 | 4 | 146 | – | – | C[C@H]1CCNC[C@@H]1Oc1cncc(-c2n[nH]c3ccc(-c4c(F)cccc4F)cc23)n1 [Example 198, 5-(2,6-difluorophenyl)-3-(6-(((3R,4S)-4-methyl-3-piperidinyl)oxy)-2-pyrazinyl)-1H-indazole]
– | – | 4 | 4330 | 29 | 4 | 273 | – | – | Fc1cccc(F)c1-c1ccc2[nH]cc(-c3cncc(NC4CCNCC4)n3)c2c1 [Example 205, 6-(5-(2,6-difluorophenyl)-1H-indol-3-yl)-N-4-piperidinyl-2-pyrazinamine]
– | – | 6 | 20400 | 54 | 2 | 326 | – | – | Fc1cccc(F)c1-c1ccc2[nH]cc(-c3cncc(OC4CCNCC4)n3)c2c1 [Example 206, 5-(2,6-difluorophenyl)-3-(6-(4-piperidinyloxy)-2-pyrazinyl)-1H-indole]
– | – | 18 | > 31600 | 185 | 15 | 997 | – | – | N[C@@H]1CCN(c2cncc(-c3c[nH]c4ccc(-c5c(F)cccc5F)cc34)n2)C1 [Example 212, (3R)-1-(6-(5-(2,6-difluorophenyl)-1H-indol-3-yl)-2-pyrazinyl)-3-pyrrolidinamine]
– | – | 40 | – | 343 | 22 | – | 18900 | 1370 | CC(C)Oc1cncc(-c2ccc3[nH]cc(-c4cncc(O[C@@H]5CCCNC5)n4)c3c2)n1 [Example 213, 5-(6-(1-methylethoxy)-2-pyrazinyl)-3-(6-((3R)-3-piperidinyloxy)-2-pyrazinyl)-1H-indole]
– | – | 206 | – | > 3000 | 100 | – | > 15800 | > 15800 | CC(C)Oc1cncc(-c2ccc3[nH]cc(-c4csc(-n5ccccc5=O)n4)c3c2)n1 [Example 227, 1-(4-(5-(6-(1-methylethoxy)-2-pyrazinyl)-1H-indol-3-yl)-1,3-thiazol-2-yl)-2(1H)-pyridinone]
– | – | 42 | – | 1410 | 43 | – | > 31600 | 3420 | CC(C)Oc1cncc(-c2ccc3[nH]cc(-c4csc(-n5ccnc5)n4)c3c2)n1 [Example 228, 3-(2-(1H-imidazol-1-yl)-1,3-thiazol-4-yl)-5-(6-(1-methylethoxy)-2-pyrazinyl)-1H-indole]
560 | 1 | – | – | – | – | – | – | – | CC(=O)Nc1ccc(-c2ccc3[nH]nc(-c4cncc(O[C@H]5CNCCC56CC6)n4)c3c2)c(F)c1 [Example 462]
307 | – | – | – | – | – | – | – | – | O=c1cc(-c2n[nH]c3ccc(-c4c(F)cccc4F)cc23)nc(OC2CNCCC2F)[nH]1 (stereo not drawn) [Example 555]

From US9090593B2, “Bicyclic compounds as Pim inhibitors” (AMGEN INC., priority 2010, dated 2015)
